{"source": "patent US20070265341A1", "about": "“COMPOSITIONS AND METHODS FOR TREATING EYE DISORDERS AND CONDITIONS” (The Schepens Eye Research Institute Inc., priority 2004, published 2007)", "key": {"C57BL/6 mice": {"test_system": "C57BL/6 mice", "test": "Corneal fluorescein staining (NEI grading), dry eye model (CEC + SQ scopolamine)", "assay_type": "in vivo, mouse", "procedure": "Six to 10 week old C57BL/6 mice (Taconic Farms, German-town, NY) were used. The protocol was approved by the Schepens Eye Research Institute Animal Care and Use Committee, and all animals were treated according to the ARVO Statement for the Use of Animals in Ophthalmic and Vision Research. […] The controlled-environment chamber: a new mouse model of dry eye. […] Louis, Mo.) was injected SQ in the dorsal skin of mice at 9 am, 12 pm, and 3 pm; the overnight dose at 6 pm was increased to 0.75 mg/0.3 ml. The mice were placed in the CEC where they were continuously exposed to a relative humidity (RH) of <30%, airflow of 15 litres/minute and a constant temperature of 21-23° C. as described previously (Barabino et al, 2005). Dry eye was induced for variable lengths of time, ranging from 2-10 days. […] Formulations tested included a) 0.2% alpha-linolenic acid (ALA, n-3); b) 0.2% linoleic acid (LA, n-6); and c) 0.1% ALA: 0.1% LA (1:1 ratio of n3:n6, total amount of fatty acid being same as in individual fatty acid formulations). […] Forty eight hours after dry eye induction, each eye was randomized to receive one of the formulations, or the vehicle. A 1 ul eye drop was applied topically to the eye of unanaesthetized mouse once daily, from 48 hours to day 4 (total 3 doses) or to day 9 (total 8 doses) depending on the time point studied. The untreated group received no eye drops. Ocular signs of dry eye were measured 24 hours after the last dose (day 5 or day 10) following which mice were euthanized for cellular and molecular studies. […] Eyes were flushed by sterile PBS to remove excess fluorescein at 3 minutes, and examined with a slit lamp biomicroscope in cobalt blue light. Punctate staining was recorded in a masked fashion with a standardized (National Eye Institute) grading system of 0 to 3 for each of the five areas in which the corneal surface was divided. […] Kruskal Wallis and Mann Whitney tests (unpaired data set), and Wilcoxin test (paired data set) were used for statistical analysis."}, "IL-1α": {"test_system": "IL-1α", "test": "Real time PCR of cytokine transcripts in dry eye cornea and conjunctiva", "assay_type": "in vivo, mouse", "text": "(§1) Corneal and conjunctival expression of pro-inflammatory cytokines IL-1α and TNF-α Th1 cytokines (IL-2 and IFN-γ) and Th2 cytokines (IL-4, IL-6 and IL-10), relative to the normal eyes, was studied using quantitative real time PCR. Total RNA was isolated from the whole mount corneal and conjunctival tissues (two pooled corneas per group and six pooled conjunctivae per group). A combined method of total RNA isolation was employed, using Trizol (Invitrogen, CA, catalog #15596-026) for tissue homogenization on ice, precipitation of RNA in the aqueous phase in 70% ethanol followed by subsequent extraction and purification using RNeasy Microkit (Qiagen, CA, catalogue # 74004). Isolated RNA was stored at −80° C. until future use.\n(§2) The first strand cDNA was synthesized from 300 ng of total RNA with random hexamers using SuperScript™ III Reverse Transcriptase (Invitrogen, CA, Catalogue #18080) according to the manufacturer's protocol. Real-time PCR was performed with FAM-MGB dye labeled pre-designed primers (Applied Biosystems, CA) for IL-1-α (catalogue # 4329586), TNF-α (Assay ID Mm99999068_ml) and GAPDH (Assay ID Mm99999915_g1), IL-2 (Assay ID […]), IL-4 (Assay ID Mm00445259), IL-6 (Assay ID Mm00446190_ml), IL-10 (Mm00439616_ml), IFN-γ (Assay ID Mm00801778 ml) according to manufacturer's recommendations. 1 ul of cDNA was loaded in each well and assays were performed in duplicates. A nontemplate control was included in all the experiments to evaluate DNA contamination of the isolated RNA and the reagents used. The results of quantitative real-time PCR were analyzed by the comparative threshold cycle (CT) method and normalized by GAPDH as an internal control. The relative expression of cytokines at different times points was compared using one way ANOVA, post hoc test LSD with p<0.05 deemed significant.\n(§3) Six to 10 week old C57BL/6 mice (Taconic Farms, German-town, NY) were used. The protocol was approved by the Schepens Eye Research Institute Animal Care and Use Committee, and all animals were treated according to the ARVO Statement for the Use of Animals in Ophthalmic and Vision Research. Dry eye was induced by placement of mice in a CEC as described above, modified with subcutaneous (“SQ”) administration of scopolamine to lead to maximal ocular dryness (Barabino S, Shen L, Chen L, Rashid S, Rolandao M, Dana M R. The controlled-environment chamber: a new mouse model of dry eye. Invest Opthalmol Vis Sci. 2005; 46: 2766-71). Briefly, 0.5 mg/0.2 ml of scopolamine hydrobromide (Sigma-Aldrich, St. Louis, Mo.) was injected SQ in the dorsal skin of mice at 9 am, 12 pm, and 3 pm; the overnight dose at 6 pm was increased to 0.75 mg/0.3 ml. The mice were placed in the CEC where they were continuously exposed to a relative humidity (RH) of <30%, airflow of 15 litres/minute and a constant temperature of 21-23° C. as described previously (Barabino et al, 2005). Dry eye was induced for variable lengths of time, ranging from 2-10 days. Age-matched mice were used as normal controls (RH>80%, no airflow and temperature 21-23° C., no scopolamine administration).\n(§4) Forty eight hours after dry eye induction, each eye was randomized to receive one of the formulations, or the vehicle. A 1 ul eye drop was applied topically to the eye of unanaesthetized mouse once daily, from 48 hours to day 4 (total 3 doses) or to day 9 (total 8 doses) depending on the time point studied. The untreated group received no eye drops. Ocular signs of dry eye were measured 24 hours after the last dose (day 5 or day 10) following which mice were euthanized for cellular and molecular studies."}, "TNF-α": {"test_system": "TNF-α", "test": "Real time PCR of cytokine transcripts in dry eye cornea and conjunctiva", "assay_type": "in vivo, mouse", "text": "as §1, §2, §3, §4"}, "Balb/c mice [1]": {"test_system": "Balb/c mice", "test": "Cotton thread test of tear production, dry eye model (CEC + scopolamine patch)", "assay_type": "in vivo, mouse", "conditions": "Scop patch alone for 6 days, Day 3 and Day 6", "text": "(§5) Normal healthy 6 to 10 weeks old female Balb/c mice (Taconic Farms, German-town, NY) can be induced to have dry eye by continuously exposing them to dry environment in a controlled environmental chamber (CEC), described below. Mice in CEC were continuously exposed throughout the duration of the experiments, to low relative humidity of less than 30% (mean and standard deviation 19%±4%), high airflow (15 liters/minute) and constant temperature (21-23 Celsius). Mice in normal cages were exposed to relative humidity over 70% (mean and SD 78%±5%), no airflow and same temperature. In addition, the mice placed in CEC were also treated with scopolamine, active agent that causes pharmacological inhibition of tear secretion. The combination of CEC and scopolamine produces severe dry eye. […]\nTear production was measured with cotton thread test, impregnated with phenol red (Zone-Quick, Lacrimedics, Eastsound, Wash.). […] The tear distance in mm is read under a microscope (Zeiss S4, West Germany) using the scale of an hemacytometer. Tear secretion was measured in three groups of mice (FIG. 1). […]\n(§6) Dry eye was induced by combined environmental and pharmacological effect (placing the mice in CEC and applying scopolamine patch for 6 days). […] Signs of dry eye were assessed at the end of Day 6, twelve hours after the last dose. […] […]"}, "Balb/c mice [2]": {"test_system": "Balb/c mice", "test": "Corneal fluorescein staining (NEI grading), dry eye model (CEC + scopolamine patch)", "assay_type": "in vivo, mouse", "conditions": "scopolamine alone, Day 3 and Day 6", "text": "as §5, with “secretion.” for “secretion. The combination of CEC and scopolamine produces severe dry eye.”\nThe cornea was examined with a slit lamp biomicroscope using cobalt blue light 3 minutes after the fluorescein instillation. Punctuate staining was recorded in a masked fashion using a standardized National Eye Institute (NEI) grading system of 0-3 for each of the five areas in which the corneal surface has been divided (FIG. 2). […]\nas §6"}}, "note": "Like-named read-outs stand apart in the source and are kept apart here.", "data": [{"molecule": "CCC=CCC=CCC=CCCCCCCCC(=O)O", "note": "[ALA, 9, 12, 15 octadecatrienoic acid]", "values": [{"measurement": "decrease in corneal fluorescein staining scores compared to the vehicle", "setting": "C57BL/6 mice; day 5, once daily drop from 48 hours", "value": 45, "unit": "%"}, {"measurement": "decrease in corneal fluorescein staining scores compared to the vehicle", "setting": "C57BL/6 mice; day 10", "value": 62, "unit": "%"}, {"measurement": "decrease in corneal fluorescein staining scores compared to untreated control eyes", "setting": "C57BL/6 mice; day 10", "value": 71, "unit": "%"}, {"measurement": "conjunctival IL-α expression", "setting": "IL-1α; conjunctiva, day 10", "value": "downward trend"}, {"measurement": "corneal IL-1α expression compared to untreated corneas", "setting": "IL-1α; cornea, day 10", "value": "significant decrease"}, {"measurement": "conjunctival expression of TNF-α compared to untreated eyes", "setting": "TNF-α; conjunctiva, day 10", "value": "significantly decreased"}, {"measurement": "corneal TNF-α expression compared to untreated and vehicle-treated corneas", "setting": "TNF-α; cornea, day 5", "value": "significant decrease"}, {"measurement": "corneal TNF-α expression", "setting": "TNF-α; cornea, day 10", "value": "decreased trend"}, {"measurement": "decrease in CD11b+ cell number compared to the untreated group", "setting": "CD11b+ cells; center of cornea, day 10", "value": 42, "unit": "%"}, {"measurement": "decrease in CD11b+ cell number compared to the vehicle", "setting": "CD11b+ cells; center of cornea, day 10", "value": 37, "unit": "%"}, {"measurement": "number of CD11b+ cells compared to untreated, vehicle, LA and combined groups", "setting": "CD11b+ cells; center of cornea, day 10", "value": "significantly decreased"}, {"measurement": "number of CD11b+ cells relative to normal (non dry eye induced) cornea", "setting": "CD11b+ cells; center of whole mount cornea, confocal images", "value": "comparable to the normal"}, {"measurement": "CD11b+ cell number compared to untreated eyes", "setting": "CD11b+ cells; periphery of cornea, day 10", "value": "significant decrease"}, {"measurement": "CD11b+ cell number compared to vehicle", "setting": "CD11b+ cells; periphery of cornea, day 10", "value": "no significant difference"}, {"measurement": "decrease in CD11b+ cell number compared to the untreated group", "setting": "CD11b+ cells; periphery of cornea, day 10", "value": 37, "unit": "%"}, {"measurement": "decrease in CD11b+ cell number compared to the vehicle", "setting": "CD11b+ cells; periphery of cornea, day 10", "value": 21, "unit": "%"}]}, {"molecule": "CCCCC/C=C\\C/C=C\\CCCCCCCC(=O)O", "note": "[LA, 9,12-octadecandienoic acid]", "values": [{"measurement": "corneal fluorescein staining scores compared to vehicle-treated eyes", "setting": "C57BL/6 mice; day 5", "value": "no significant difference"}, {"measurement": "corneal fluorescein staining scores compared to vehicle and untreated eyes", "setting": "C57BL/6 mice; day 10", "value": "no difference"}, {"measurement": "IL-1α expression, between untreated, vehicle and treated eyes", "setting": "IL-1α; cornea and conjunctiva", "value": "No significant difference"}, {"measurement": "TNF-α expression, between untreated, vehicle and treated eyes", "setting": "TNF-α; cornea and conjunctiva", "value": "No significant difference"}]}, {"molecule": "CN1[C@@H]2C[C@@H](OC(=O)[C@H](CO)c3ccccc3)C[C@H]1[C@@H]1O[C@@H]12", "note": "[Scop patch, scopolamine]", "values": [{"measurement": "tear secretion compared to the baseline", "setting": "Balb/c mice [1]", "value": "markedly decreased"}, {"measurement": "corneal fluorescein staining compared to the controls", "setting": "Balb/c mice [2]", "value": "significant increase"}]}]}
